# Test results published in US8158656B2, “2-indolinone derivatives as multi-target protein kinase inhibitors and histone deacetylase inhibitors” (Shenzhen Chipscreen Biosciences Ltd., priority 2008, dated 2012).
# Assays:
# Type in all cases: cell-based
# [1] = tested on: HUVEC cells; experiment: VEGF ligand-dependent cell proliferation; settings: Homo sapiens, VEGF 165 50 ng/ml, 72 hours, MTS
# Procedure: VEGF dependent cell proliferation:
# HUVEC cells were plated into 96-well plates at 6,000 per well and incubated with serum-free medium for 2 hours. Compounds and VEGF 165 (50 ng/ml) were added and incubated for 72 hours in serum-free medium. The effects on proliferation were determined by addition of MTS reagent (Promega) according to the instruction, incubation for 2 hours at 37° C. in CO2 incubator, and record the absorbance at 490 nm using an ELISA plate reader.
# [2] = tested on: HL60; experiment: Tumor cell proliferation (MTS), HL60; settings: Homo sapiens, HL-60, HL60, 72 hours
# Procedure: (§1) Measurement of in vivo cell proliferation:
# (§2) Tumor cells were trypsinized and plated into 96-well plates at 3,000 per well and incubated in complete medium with 10% FBS for 24 hours. Compounds were added over a final concentration range of 100 μmol/L to 100 nmol/L in 0.1% DMSO and incubated for 72 hours in complete medium. The effects on proliferation were determined by addition of MTS reagent (Promega) according to the instruction, incubation for 2 hours at 37° C. in CO2 incubator, and record the absorbance at 490 nm using an ELISA plate reader.
# [3] = tested on: Hut-78; experiment: Tumor cell proliferation (MTS), Hut-78; settings: Homo sapiens, HuT78, Hut-78, 72 hours
# Procedure: as §1, §2
# [4] = tested on: U937; experiment: Tumor cell proliferation (MTS), U937; settings: Homo sapiens, U-937, U937, 72 hours
# Procedure: as §1, §2
# [5] = tested on: MCF7; experiment: Tumor cell proliferation (MTS), MCF7; settings: Homo sapiens, MCF7, 72 hours
# Procedure: as §1, §2
# [6] = tested on: MDA-MB-231; experiment: Tumor cell proliferation (MTS), MDA-MB-231; settings: Homo sapiens, MDA-MB-231, 72 hours
# Procedure: as §1, §2
GI50 [2] [µM],GI50 [3] [µM],GI50 [4] [µM],GI50 [5] [µM],GI50 [6] [µM],SMILES,GI50 [1] [nM]
> 60,> 60,> 60,> 60,> 60,"Cc1[nH]c(/C=N/N=C2\C(=O)Nc3ccc(F)cc32)c(C)c1C(=O)NCCNc1ccc(C(=O)Nc2ccc(F)cc2N)cn1 [Example 14, N-(2-amino-4-fluorophenyl)-6-(2-(2-(((5-fluoro-2-oxoindolin-3-ylidene)-hydrazono)methyl)-3,5-dimethyl-1H-pyrrole-4-carboxamido)ethylamino)nicotinamide]",201
7.91,> 60,> 60,> 60,> 60,"Cc1[nH]c(/C=N/N=C2\C(=O)Nc3ccc(F)cc32)c(C)c1C(=O)NCCCNc1ccc(C(=O)Nc2ccccc2N)cn1 [Example 7, N-(2-aminophenyl)-6-(3-(2-(((5-fluoro-2-oxoindolin-3-ylidene)hydrazono)-methyl)-3,5-dimethyl-1H-pyrrole-4-carboxamido)propylamino)nicotinamide]",387
> 60,> 60,> 60,> 60,> 60,"Cc1[nH]c(/C=C2\C(=O)Nc3ccc(F)cc32)c(C)c1C(=O)NCCCNc1ccc(C(=O)Nc2ccccc2N)cn1 [Example 6, (Z)-N-(2-aminophenyl)-6-(3-(2-((5-fluoro-2-oxoindolin-3-ylidene)methyl)-3,5-dimethyl-1H-pyrrole-4-carboxamido)propylamino)nicotinamide]",9
4.15,1.77,> 60,> 60,> 60,"Cc1[nH]c(/C=C2\C(=O)Nc3ccc(F)cc32)c(C)c1C(=O)NCCNc1ccc(C(=O)Nc2ccccc2N)cn1 [Example 3, (Z)-N-(2-aminophenyl)-6-(2-(2-((5-fluoro-2-oxoindolin-3-ylidene)methyl)-3,5-dimethyl-1H-pyrrole-4-carboxamido)ethylamino)nicotinamide]",< 1
> 60,> 60,> 60,> 60,> 60,"Cc1[nH]c(/C=N/N=C2\C(=O)Nc3ccc(F)cc32)c(C)c1C(=O)NCCCCNc1ccc(C(=O)Nc2ccc(F)cc2N)cn1 [Example 20, N-(2-amino-4-fluorophenyl)-6-(4-(2-(((5-fluoro-2-oxoindolin-3-ylidene)-hydrazono)methyl)-3,5-dimethyl-1H-pyrrole-4-carboxamido)butylamino)nicotinamide]",330
1.27,1.67,> 60,> 60,> 60,"Cc1[nH]c(/C=C2\C(=O)Nc3ccc(F)cc32)c(C)c1C(=O)NCCCCNc1ccc(C(=O)Nc2ccccc2N)cn1 [Example 9, (Z)-N-(2-aminophenyl)-6-(4-(2-((5-fluoro-2-oxoindolin-3-ylidene)methyl)-3,5-dimethyl-1H-pyrrole-4-carboxamido)butylamino)nicotinamide]",12
> 60,> 60,> 60,> 60,> 60,"Cc1[nH]c(/C=N/N=C2\C(=O)Nc3ccc(F)cc32)c(C)c1C(=O)NCCCNc1ccc(C(=O)Nc2ccc(F)cc2N)cn1 [Example 17, N-(2-amino-4-fluorophenyl)-6-(3-(2-(((5-fluoro-2-oxoindolin-3-ylidene)-hydrazono)methyl)-3,5-dimethyl-1H-pyrrole-4-carboxamido)propylamino)nicotinamide]",460
> 60,> 60,> 60,> 60,> 60,"Cc1[nH]c(/C=C2\C(=O)Nc3ccc(F)cc32)c(C)c1C(=O)NCCNc1ccc(C(=O)Nc2ccc(F)cc2N)cn1 [Example 13, (Z)-N-(2-amino-4-fluorophenyl)-6-(2-(2-((5-fluoro-2-oxoindolin-3-ylidene)-methyl)-3,5-dimethyl-1H-pyrrole-4-carboxamido)ethylamino)nicotinamide]",7
> 60,> 60,> 60,> 60,> 60,"Cc1[nH]c(/C=C2\C(=O)Nc3ccc(F)cc32)c(C)c1C(=O)NCCCCNc1ccc(C(=O)Nc2ccc(F)cc2N)cn1 [Example 19, (Z)-N-(2-amino-4-fluorophenyl)-6-(4-(2-((5-fluoro-2-oxoindolin-3-ylidene)-methyl)-3,5-dimethyl-1H-pyrrole-4-carboxamido)butylamino)nicotinamide]",81
6.28,> 60,> 60,> 60,> 60,"Cc1[nH]c(/C=N/N=C2\C(=O)Nc3ccc(F)cc32)c(C)c1C(=O)NCCCCNc1ccc(C(=O)Nc2ccccc2N)cn1 [Example 10, N-(2-aminophenyl)-6-(4-(2-(((5-fluoro-2-oxoindolin-3-ylidene)hydrazono)-methyl)-3,5-dimethyl-1H-pyrrole-4-carboxamido)butylamino)nicotinamide]",568
> 60,> 60,> 60,> 60,> 60,"Cc1[nH]c(/C=N/N=C2\C(=O)Nc3ccc(F)cc32)c(C)c1C(=O)NCCNc1ccc(C(=O)Nc2ccccc2N)cn1 [Example 4, N-(2-aminophenyl)-6-(2-(2-(((5-fluoro-2-oxoindolin-3-ylidene)hydrazono)-methyl)-3,5-dimethyl-1H-pyrrole-4-carboxamido)ethylamino)nicotinamide]",1
> 60,> 60,> 60,> 60,> 60,"Cc1[nH]c(/C=C2\C(=O)Nc3ccc(F)cc32)c(C)c1C(=O)NCCCNc1ccc(C(=O)Nc2ccc(F)cc2N)cn1 [Example 16, (Z)-N-(2-amino-4-fluorophenyl)-6-(3-(2-((5-fluoro-2-oxoindolin-3-ylidene)-methyl)-3,5-dimethyl-1H-pyrrole-4-carboxamido)propylamino)nicotinamide]",39
